Test results from ChEMBL document CHEMBL1201862, “PubChem BioAssay data set” (2004).
The source made the active and inactive calls.

How the values were obtained:
[1] = target: Intestinal-type alkaline phosphatase (Homo sapiens, UniProt P09923); assay: Dose Response confirmation of uHTS hits from a small molecule inhibitors of human intestinal alkaline phosphatase via a luminescent assay. [Related pubchem assays (depositor defined):AID2544, AID2574]; assay type: functional
[2] = target: T1, Voltage-gated N-type calcium channel alpha-1B subunit/Amyloid beta A4 precursor protein-binding family A member 1 (Homo sapiens, UniProt Q00975+Q02410); assay type: protein assay
T1 sequence (Q00975 whole entry): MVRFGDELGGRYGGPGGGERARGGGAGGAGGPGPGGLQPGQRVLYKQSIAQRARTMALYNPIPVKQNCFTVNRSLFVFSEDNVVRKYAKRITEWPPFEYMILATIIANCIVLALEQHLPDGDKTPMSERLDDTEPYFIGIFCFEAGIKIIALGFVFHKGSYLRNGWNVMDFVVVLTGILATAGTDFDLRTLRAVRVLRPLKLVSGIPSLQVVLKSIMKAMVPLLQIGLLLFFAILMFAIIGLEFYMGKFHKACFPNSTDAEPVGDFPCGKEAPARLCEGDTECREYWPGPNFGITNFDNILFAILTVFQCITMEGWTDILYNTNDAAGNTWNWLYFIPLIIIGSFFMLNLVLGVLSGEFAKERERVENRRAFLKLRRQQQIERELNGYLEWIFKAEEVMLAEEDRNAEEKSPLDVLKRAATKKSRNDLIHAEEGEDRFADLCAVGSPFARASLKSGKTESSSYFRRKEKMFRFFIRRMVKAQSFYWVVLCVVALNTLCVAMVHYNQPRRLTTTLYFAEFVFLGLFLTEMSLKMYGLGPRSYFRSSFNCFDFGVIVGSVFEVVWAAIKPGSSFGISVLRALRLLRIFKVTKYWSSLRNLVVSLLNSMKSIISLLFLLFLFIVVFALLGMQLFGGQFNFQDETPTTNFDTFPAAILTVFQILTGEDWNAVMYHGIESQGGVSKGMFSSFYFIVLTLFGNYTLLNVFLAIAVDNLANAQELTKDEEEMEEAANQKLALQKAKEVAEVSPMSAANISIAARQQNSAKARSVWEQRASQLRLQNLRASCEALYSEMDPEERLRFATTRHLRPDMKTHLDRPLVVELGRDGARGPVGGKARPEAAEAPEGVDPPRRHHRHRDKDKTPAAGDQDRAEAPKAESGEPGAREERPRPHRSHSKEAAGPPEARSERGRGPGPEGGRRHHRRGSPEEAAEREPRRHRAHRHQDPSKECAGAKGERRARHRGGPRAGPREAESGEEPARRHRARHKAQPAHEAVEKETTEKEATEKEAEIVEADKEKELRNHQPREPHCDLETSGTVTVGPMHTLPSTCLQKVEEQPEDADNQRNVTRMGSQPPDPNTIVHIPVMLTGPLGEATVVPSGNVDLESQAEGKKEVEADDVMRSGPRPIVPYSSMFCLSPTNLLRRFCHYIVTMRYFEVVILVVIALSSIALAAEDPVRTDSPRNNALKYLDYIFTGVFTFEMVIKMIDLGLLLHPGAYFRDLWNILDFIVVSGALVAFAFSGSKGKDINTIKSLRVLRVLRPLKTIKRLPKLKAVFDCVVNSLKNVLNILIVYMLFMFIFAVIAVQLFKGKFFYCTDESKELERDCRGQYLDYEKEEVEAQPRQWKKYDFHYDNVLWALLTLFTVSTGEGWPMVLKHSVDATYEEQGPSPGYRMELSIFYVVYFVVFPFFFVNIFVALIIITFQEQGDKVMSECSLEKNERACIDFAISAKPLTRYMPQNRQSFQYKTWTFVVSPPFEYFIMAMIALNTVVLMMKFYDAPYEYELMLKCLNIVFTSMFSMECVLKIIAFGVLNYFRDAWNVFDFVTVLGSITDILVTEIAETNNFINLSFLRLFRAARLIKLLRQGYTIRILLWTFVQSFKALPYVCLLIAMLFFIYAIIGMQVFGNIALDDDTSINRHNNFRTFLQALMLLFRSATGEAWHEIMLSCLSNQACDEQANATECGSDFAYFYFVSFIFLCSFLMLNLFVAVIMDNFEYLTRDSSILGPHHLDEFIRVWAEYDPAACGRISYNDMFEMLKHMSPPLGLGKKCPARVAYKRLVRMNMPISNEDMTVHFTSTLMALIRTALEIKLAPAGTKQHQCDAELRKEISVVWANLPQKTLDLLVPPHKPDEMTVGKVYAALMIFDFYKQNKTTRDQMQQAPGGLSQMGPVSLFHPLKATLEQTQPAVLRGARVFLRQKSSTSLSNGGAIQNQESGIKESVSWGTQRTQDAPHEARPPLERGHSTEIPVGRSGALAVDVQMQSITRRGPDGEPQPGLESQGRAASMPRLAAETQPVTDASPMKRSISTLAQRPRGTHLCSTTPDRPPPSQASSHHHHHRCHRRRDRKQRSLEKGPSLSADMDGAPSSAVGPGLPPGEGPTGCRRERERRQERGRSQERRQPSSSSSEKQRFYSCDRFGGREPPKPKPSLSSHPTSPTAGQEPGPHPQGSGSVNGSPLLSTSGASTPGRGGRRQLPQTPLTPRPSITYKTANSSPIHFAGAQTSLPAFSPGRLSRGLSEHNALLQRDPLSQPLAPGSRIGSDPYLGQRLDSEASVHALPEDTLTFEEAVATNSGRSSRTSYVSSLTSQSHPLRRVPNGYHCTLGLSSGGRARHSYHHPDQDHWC
T1 sequence (Q02410 whole entry): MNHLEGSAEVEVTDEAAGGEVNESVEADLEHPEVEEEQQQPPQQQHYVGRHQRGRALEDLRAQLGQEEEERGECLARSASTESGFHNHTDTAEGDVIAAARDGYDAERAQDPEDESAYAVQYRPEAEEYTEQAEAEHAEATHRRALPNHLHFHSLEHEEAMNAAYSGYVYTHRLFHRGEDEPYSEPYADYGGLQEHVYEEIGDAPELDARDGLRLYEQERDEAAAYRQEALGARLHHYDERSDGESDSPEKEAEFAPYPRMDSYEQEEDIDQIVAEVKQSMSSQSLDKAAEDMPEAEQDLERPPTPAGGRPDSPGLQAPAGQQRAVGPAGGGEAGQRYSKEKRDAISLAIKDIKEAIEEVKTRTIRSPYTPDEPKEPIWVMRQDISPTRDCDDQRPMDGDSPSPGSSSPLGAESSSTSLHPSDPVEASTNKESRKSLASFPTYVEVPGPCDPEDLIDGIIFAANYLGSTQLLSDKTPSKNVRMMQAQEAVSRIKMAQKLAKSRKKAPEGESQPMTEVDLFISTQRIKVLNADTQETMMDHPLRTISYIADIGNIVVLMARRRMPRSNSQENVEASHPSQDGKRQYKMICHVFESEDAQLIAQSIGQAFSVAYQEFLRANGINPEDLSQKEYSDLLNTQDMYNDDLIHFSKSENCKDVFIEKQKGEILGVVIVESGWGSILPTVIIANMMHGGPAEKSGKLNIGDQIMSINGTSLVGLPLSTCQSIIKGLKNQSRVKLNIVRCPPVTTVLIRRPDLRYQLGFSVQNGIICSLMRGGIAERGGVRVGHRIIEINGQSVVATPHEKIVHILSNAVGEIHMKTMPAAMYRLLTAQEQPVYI

[3] = target: T1, Voltage-gated N-type calcium channel alpha-1B subunit/Amyloid beta A4 precursor protein-binding family A member 1; assay type: protein assay; remark: listed apart in the source
[4] = target: T2, 1-acylglycerol-3-phosphate O-acyltransferase ABHD5/Perilipin-5 (Homo sapiens, UniProt Q00G26+Q8WTS1); assay: Luminescence-based biochemical high throughput dose response assay for inhibitors of the interaction of the lipase co-activator protein, abhydrolase domain containing 5 (ABHD5) with perilipin-5 (MLDP; PLIN5) (2K validation set). [Related pubchem assays (depositor defined):AID493035, AID493241]
T2 sequence (Q00G26 whole entry): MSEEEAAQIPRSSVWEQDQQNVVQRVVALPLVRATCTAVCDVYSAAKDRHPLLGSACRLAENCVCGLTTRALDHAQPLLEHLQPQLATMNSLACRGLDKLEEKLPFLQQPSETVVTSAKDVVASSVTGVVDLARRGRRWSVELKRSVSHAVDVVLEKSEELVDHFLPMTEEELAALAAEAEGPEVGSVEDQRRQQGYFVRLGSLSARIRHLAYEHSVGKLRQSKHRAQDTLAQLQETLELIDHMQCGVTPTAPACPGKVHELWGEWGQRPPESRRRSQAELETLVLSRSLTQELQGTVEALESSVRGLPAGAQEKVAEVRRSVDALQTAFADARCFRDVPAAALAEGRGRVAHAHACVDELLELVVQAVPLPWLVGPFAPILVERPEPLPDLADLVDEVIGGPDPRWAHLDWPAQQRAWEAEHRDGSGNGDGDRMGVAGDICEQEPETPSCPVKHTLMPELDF
T2 sequence (Q8WTS1 whole entry): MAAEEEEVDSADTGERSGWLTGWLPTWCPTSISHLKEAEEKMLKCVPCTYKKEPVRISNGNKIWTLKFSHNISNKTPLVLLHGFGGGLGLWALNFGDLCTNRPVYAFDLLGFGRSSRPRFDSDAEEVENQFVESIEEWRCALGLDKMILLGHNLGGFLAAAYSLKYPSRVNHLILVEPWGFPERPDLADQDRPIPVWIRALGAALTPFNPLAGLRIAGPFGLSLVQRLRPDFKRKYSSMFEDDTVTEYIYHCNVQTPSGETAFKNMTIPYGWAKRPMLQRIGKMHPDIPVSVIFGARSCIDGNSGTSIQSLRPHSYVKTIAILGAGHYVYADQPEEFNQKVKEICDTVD

Perilipin-1/ABHD5 = target: T3, Perilipin-1/ABHD5 (Homo sapiens, UniProt O60240+Q8WTS1); assay: Luminescence-based biochemical high throughput dose response assay for inhibitors of the interaction of the lipase co-activator protein, abhydrolase domain containing 5 (ABHD5) with perilipin-1 (PLIN1) (2K validation set). [Related pubchem assays (depositor defined):AID493027, AID493057]
T3 sequence (Q8WTS1 whole entry): T2 sequence (Q8WTS1 whole entry)
T3 sequence (O60240 whole entry): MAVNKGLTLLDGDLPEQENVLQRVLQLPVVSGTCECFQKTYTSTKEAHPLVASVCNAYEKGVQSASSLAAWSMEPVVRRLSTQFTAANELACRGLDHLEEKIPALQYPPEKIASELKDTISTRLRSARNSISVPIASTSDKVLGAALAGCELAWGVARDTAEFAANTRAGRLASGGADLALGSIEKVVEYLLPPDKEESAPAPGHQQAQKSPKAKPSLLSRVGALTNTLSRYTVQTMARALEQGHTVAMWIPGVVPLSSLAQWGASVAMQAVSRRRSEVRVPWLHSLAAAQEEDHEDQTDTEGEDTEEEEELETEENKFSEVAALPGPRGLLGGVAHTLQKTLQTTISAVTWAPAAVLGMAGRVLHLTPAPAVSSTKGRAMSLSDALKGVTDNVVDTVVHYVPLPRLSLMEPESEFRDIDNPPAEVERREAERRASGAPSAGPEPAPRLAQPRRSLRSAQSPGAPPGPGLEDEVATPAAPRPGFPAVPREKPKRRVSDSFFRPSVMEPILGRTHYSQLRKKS

cells [5] = assay type: functional, cell-based
SUMO-activating enzyme [6] = target: T4, SUMO-activating enzyme (Homo sapiens, UniProt Q9UBT2); assay: blockers of UBC9-mediated SUMO conjugation – biochemical, AlphaScreen, SUMOylation inhibitor project, confirmation (AID 2018); assay type: functional
T4 sequence (Q9UBE0 whole entry): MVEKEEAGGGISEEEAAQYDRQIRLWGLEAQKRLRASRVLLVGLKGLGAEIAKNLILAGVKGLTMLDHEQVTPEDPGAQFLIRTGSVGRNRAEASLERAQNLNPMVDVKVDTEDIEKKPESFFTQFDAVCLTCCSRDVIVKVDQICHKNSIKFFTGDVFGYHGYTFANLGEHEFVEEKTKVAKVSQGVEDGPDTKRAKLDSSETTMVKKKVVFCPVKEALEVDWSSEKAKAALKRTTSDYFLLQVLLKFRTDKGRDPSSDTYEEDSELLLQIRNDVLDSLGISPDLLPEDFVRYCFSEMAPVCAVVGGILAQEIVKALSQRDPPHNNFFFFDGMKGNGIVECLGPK
T4 sequence (Q9UBT2 whole entry): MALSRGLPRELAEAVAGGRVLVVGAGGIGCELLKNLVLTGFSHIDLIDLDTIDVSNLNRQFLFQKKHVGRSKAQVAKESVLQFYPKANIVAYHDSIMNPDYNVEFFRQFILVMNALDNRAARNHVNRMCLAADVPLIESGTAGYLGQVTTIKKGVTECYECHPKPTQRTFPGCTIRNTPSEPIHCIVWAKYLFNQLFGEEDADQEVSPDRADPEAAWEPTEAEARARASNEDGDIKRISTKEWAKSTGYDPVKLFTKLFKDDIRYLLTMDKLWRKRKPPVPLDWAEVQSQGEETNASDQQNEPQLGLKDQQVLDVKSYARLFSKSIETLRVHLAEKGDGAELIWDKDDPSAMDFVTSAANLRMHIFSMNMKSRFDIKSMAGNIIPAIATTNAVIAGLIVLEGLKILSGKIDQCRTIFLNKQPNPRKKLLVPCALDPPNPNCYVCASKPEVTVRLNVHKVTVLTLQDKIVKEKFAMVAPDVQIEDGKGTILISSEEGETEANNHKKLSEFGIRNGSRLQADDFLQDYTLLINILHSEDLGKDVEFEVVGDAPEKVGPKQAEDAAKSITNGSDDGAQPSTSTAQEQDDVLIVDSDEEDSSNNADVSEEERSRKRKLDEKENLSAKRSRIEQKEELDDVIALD

SUMO-activating enzyme [7] = target: T4, SUMO-activating enzyme; assay: blockers of SAE1/SAE2–UBC9 SUMO transfer – biochemical, HTRF, uHTS, primary screen (AID 2006); assay type: protein-complex assay
cells [8] = assay type: functional, cell-based; remark: listed apart in the source
Exodeoxyribonuclease V = target: T5, Exodeoxyribonuclease V (Escherichia coli (strain K12), UniProt P04993+P07648+P08394); assay: RecBCD inhibition via phage-restricted bacterial growth – absorbance, V66 E. coli, mutant T4 phage, counter-screen for AddAB inhibitor project, dose response (AID 492957); assay type: functional, cell-based, Escherichia coli str. K-12 substr. MG1655
T5 sequence (P04993 whole entry): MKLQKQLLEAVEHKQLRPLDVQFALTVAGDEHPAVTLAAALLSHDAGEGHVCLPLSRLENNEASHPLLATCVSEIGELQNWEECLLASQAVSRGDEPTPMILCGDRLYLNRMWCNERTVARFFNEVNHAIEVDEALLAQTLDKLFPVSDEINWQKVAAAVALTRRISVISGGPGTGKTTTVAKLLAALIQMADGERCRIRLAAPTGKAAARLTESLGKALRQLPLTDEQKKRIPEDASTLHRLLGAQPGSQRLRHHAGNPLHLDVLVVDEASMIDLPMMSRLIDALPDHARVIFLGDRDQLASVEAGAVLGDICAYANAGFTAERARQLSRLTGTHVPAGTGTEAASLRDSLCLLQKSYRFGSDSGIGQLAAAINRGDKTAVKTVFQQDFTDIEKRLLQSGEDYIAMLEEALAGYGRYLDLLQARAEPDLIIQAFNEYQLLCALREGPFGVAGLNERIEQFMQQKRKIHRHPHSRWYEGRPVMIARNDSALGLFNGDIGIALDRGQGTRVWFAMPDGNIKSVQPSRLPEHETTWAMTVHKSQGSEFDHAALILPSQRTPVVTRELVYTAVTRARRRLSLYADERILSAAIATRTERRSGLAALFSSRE
T5 sequence (P07648 whole entry): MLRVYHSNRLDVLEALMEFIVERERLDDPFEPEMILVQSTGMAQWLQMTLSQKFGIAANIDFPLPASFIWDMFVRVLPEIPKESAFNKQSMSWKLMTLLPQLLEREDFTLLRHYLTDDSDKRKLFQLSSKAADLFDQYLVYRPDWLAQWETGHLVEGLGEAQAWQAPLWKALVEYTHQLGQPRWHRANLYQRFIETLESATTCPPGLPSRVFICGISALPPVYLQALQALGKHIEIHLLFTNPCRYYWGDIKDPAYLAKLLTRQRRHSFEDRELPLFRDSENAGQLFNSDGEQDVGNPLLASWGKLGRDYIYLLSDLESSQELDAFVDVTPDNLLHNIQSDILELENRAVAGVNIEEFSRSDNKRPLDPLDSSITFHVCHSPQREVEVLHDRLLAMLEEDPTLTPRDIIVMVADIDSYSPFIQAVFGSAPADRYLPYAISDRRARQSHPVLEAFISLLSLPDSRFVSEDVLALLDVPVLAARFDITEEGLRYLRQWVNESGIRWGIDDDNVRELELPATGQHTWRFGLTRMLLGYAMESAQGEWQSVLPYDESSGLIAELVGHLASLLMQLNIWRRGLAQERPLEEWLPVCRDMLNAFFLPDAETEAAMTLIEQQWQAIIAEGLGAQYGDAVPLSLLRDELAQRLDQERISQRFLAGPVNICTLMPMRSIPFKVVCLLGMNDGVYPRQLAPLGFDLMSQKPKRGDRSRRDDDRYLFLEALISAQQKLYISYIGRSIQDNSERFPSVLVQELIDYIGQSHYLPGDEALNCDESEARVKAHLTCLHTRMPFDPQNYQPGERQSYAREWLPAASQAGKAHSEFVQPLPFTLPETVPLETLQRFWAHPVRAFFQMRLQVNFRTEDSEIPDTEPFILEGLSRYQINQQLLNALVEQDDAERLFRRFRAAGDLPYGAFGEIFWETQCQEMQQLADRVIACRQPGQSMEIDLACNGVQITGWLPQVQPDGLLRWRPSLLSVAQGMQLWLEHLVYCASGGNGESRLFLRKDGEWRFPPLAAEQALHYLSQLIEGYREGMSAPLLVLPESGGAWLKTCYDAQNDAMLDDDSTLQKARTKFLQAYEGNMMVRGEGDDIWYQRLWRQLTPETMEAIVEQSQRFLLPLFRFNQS
T5 sequence (P08394 whole entry): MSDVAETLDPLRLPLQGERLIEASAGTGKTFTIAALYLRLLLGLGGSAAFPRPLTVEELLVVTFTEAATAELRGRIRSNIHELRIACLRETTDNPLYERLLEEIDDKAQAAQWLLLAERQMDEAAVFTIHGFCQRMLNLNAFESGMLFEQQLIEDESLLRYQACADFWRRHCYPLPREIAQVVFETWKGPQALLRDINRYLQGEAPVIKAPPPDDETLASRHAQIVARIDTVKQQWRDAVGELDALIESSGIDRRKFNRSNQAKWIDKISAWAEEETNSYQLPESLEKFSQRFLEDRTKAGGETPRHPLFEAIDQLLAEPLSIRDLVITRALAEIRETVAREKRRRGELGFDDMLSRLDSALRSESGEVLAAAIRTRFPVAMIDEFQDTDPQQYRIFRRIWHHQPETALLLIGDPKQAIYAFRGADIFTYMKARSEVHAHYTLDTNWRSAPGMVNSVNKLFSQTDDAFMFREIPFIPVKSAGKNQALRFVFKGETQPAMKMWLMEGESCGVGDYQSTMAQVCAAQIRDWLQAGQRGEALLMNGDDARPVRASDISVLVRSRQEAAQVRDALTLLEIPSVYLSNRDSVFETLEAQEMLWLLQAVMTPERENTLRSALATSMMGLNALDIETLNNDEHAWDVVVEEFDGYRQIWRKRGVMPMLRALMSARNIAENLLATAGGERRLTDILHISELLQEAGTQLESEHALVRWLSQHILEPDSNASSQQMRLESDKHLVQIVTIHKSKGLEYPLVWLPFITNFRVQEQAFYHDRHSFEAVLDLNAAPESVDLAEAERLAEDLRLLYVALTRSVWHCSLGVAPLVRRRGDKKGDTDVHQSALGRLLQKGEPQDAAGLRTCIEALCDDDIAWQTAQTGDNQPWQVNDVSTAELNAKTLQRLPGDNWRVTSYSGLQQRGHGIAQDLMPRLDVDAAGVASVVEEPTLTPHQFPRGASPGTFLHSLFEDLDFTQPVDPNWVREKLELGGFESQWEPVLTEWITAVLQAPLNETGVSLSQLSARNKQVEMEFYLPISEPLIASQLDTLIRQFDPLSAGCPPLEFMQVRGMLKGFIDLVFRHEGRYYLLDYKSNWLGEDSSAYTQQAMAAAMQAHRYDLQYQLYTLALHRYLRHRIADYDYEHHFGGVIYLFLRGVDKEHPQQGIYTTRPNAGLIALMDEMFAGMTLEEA

[9] = Counterscreen for AddAB inhibitors: absorbance-based bacterial cell-based high throughput dose response assay for inhibitors of bacterial viability. [Related pubchem assays (depositor defined):AID435030, AID449728, AID449731, AID488942, AID488955, AID488956]; assay type: functional
INS1 = assay: INS-1E survival protection against cytokine death – cell-based, luminescence, retest, dose response (AID 449756); assay type: functional; details: Rattus norvegicus;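 also: cell death triggered by IL-1 beta plus TNF-alpha plus IFN-gamma mixture; protective hits raise ATP signal compared with cytokine alone wells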
[10] = reduction of Shn3 3'UTR-driven luciferase in osteoblasts – cell-based, Clone20 osteoblasts, firefly luciferase, cherry-picked, dose response (AID 624132); assay type: functional;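 also: firefly luciferase luminescence from reporter carrying the Shn3 3'UTR in osteoblasts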
[11] = loss of viability in HepG2 cells – cell-based, CellTiter-Glo, cherry-picked, cytotoxicity control for Shn3 inhibitor project, dose response (AID 624134); assay type: functional
[12] = non-specific 3'UTR reporter inhibition in Clone20-Shn3RL – cell-based, Renilla luciferase, cherry-picked, counter-screen for Shn3 inhibitor project, dose response (AID 624133); assay type: functional
Troponin, cardiac muscle = Troponin, cardiac muscle (Homo sapiens, UniProt P19429+P45379+P63316); assay: Fluorescence-based biochemical high throughput dose response assay for activators of the calcium sensitivity of cardiac Regulated Thin Filaments (RTF). [Related pubchem assays (depositor defined):AID493008, AID493018, AID504382, AID504383]; assay type: protein-complex assay

Sequence of Intestinal-type alkaline phosphatase (P09923 whole entry): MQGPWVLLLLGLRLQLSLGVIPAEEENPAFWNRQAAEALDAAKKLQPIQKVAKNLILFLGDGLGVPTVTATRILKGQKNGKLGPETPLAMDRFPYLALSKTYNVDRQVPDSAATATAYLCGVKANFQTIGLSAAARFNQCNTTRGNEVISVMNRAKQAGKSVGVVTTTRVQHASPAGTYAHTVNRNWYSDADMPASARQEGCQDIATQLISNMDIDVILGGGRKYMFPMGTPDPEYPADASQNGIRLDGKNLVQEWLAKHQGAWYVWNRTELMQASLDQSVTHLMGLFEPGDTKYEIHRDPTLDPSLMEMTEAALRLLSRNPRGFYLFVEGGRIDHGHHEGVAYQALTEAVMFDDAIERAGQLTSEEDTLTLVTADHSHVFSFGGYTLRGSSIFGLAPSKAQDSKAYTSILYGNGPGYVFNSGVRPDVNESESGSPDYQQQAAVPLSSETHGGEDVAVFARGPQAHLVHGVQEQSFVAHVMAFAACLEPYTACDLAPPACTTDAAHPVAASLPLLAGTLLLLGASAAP

## O=C(O)COn1c(-c2ccc(Cl)cc2)nc2ccc(Cl)cc21
[1]
  IC50: > 100 µM (inactive)

## Cc1cc(C)n(C(=O)C23CC4CC(CC(C4)C2)C3)n1
[1]
  IC50: > 100 µM (inactive)

## COc1ccc(N2C(=O)NC(=O)/C(=C\c3c[nH]c4ccccc34)C2=O)cc1
[2]
  IC50: 23.7 µM (active)
[3]
  IC50: > 50 µM (inactive)

## COc1ccc(/C=C2\CC/C(=C\c3ccc(OC)c(OC)c3)C2=O)cc1OC
[4]
  IC50: 5.24 µM (active)
Perilipin-1/ABHD5
  IC50: 5.6 µM (active)

## CCCCC(=O)NC(c1ccccc1Cl)c1ccc2cccnc2c1O (configuration not stated)
Cells [5]
  EC50: 8.93 µM (active)
SUMO-activating enzyme [6]
  IC50: 9.96 µM (active)
SUMO-activating enzyme [7]
  IC50: > 100 µM (inactive)
Cells [8]
  EC50: > 350 µM (not active)
Exodeoxyribonuclease V
  IC50: > 119 µM (inactive)
[9]
  IC50: > 119 µM (inactive)
INS1
  AC50: 0.645 µM (active)
[10]
  AC50: 1.12 µM (active)
[11]
  AC50: 3.56 µM (active)
[12]
  AC50: 0.856 µM (active)

## O=C(CCN1C(=O)/C(=C/c2ccccc2Cl)SC1=S)NC1CCS(=O)(=O)C1 (configuration not stated)
[2]
  IC50: 5.22 µM (active)
[3]
  IC50: > 50 µM (inactive)

## COc1ccc2[nH]c(-c3ccccn3)nc2c1
Troponin, cardiac muscle
  EC50: > 71.5 µM (inactive)

## CSCCC(NC(=O)OC(C)(C)C)C(=O)Oc1ccc2c(=O)c(-c3ccc4c(c3)OCCO4)coc2c1 (configuration not stated)
[4]
  IC50: 3.94 µM (active)
Perilipin-1/ABHD5
  IC50: 2.99 µM (active)

## COc1cc(N2CCCC2)c(OC)cc1/C=C1/NC(=S)NC1=O
Troponin, cardiac muscle
  EC50: 1.14 µM (active)
